Results from patent US8741914B2, “Antiviral compounds and uses thereof” (priority 2009, dated 2014).
pEC50, pIC50: −log10 of the molar value.

Legend:
[1] = molecular target: T1, HCV polymerase 1B (Δ21 NS5B, BK) (Hepatitis C virus genotype 1b, UniProt P26663); test: HCV Polymerase Inhibition Assay (1b); type: biochemical
T1 construct: 20 to 50 nM Δ21 NS5B
Method: (§1) The reaction was initiated by the addition of 20 μM CTP, 20 μM ATP, 1 μM ^3H-UTP (10 mCi/μmol), 5 nM template RNA and 0.1 U/μL RNase inhibitor (RNasin, Promega), and allowed to proceed for 2 to 4 hours at room temperature. Reaction volume was 50 μL. The reaction was terminated by the addition of 1 volume of 4 mM spermine in 10 mM Tris-Cl pH 8.0, 1 mM EDTA. After incubation for at least 15 minutes at room temperature, the precipitated RNA was captured by filtering through a GF/B filter (Millipore) in a 96 well format. The filter plate was washed three times with 200 μL each of 2 mM spermine, 10 mM Tris-Cl pH 8.0, 1 mM EDTA, and 2 times with ethanol. After air-drying, 30 μL of Microscint 20 scintillation cocktail (Packard) was added to each well, and the retained cpm were determined by scintillation counting. […] Retained cpm were plotted vs. inhibitor concentration and fit to equation 1 using non-linear regression (ref. 1) to obtain the IC50 values: Retained cpm=A[sqrt{(IC50+It−Et)^2+4*IC50*Et}−(IC50+It−Et)] (equation 1) where A=Vmax[S]/2(Km+[S]); It=total inhibitor concentration and Et=total active concentration of enzyme.
(§2) Ref. Morrison, J. F. and S. R. Stone. 1985. Approaches to the study and analysis of the inhibition of enzymes by slow- and tight-binding inhibitors. Comments Mol. Cell. Biophys. 2: 347-368.
(§3) The sequence of the template RNA used was: 5′-[…] […] […] […] […] […] […] […] […] […] […] […] […] […] […] […] […]-3′ (SEQ ID NO: 1).

[2] = molecular target: T2, HCV polymerase 1A (Δ21 NS5B, H77) (Hepatitis C virus genotype 1a, UniProt P27958); test: HCV Polymerase Inhibition Assay (1a); type: biochemical
T2 construct: 20 to 50 nM Δ21 NS5B
Method: as §1, §2, §3

[3] = tested on: genotype 1b-Con1 subgenomic replicon cell line; test: HCV Polymerase Replicon Assay (genotype 1b-Con1); type: cell-based; settings: Hepatitis C virus, 72 h; 1b-Con1 replicon, luciferase reporter, 5% FBS, three days
[4] = tested on: genotype 1a-H77 subgenomic replicon cell line; test: HCV Polymerase Replicon Assay (genotype 1a-H77); type: cell-based; settings: Hepatitis C virus, 72 h; 1a-H77 replicon, luciferase reporter, 5% FBS, three days

T1 sequence (P26663 2420-2989, stated change not applied): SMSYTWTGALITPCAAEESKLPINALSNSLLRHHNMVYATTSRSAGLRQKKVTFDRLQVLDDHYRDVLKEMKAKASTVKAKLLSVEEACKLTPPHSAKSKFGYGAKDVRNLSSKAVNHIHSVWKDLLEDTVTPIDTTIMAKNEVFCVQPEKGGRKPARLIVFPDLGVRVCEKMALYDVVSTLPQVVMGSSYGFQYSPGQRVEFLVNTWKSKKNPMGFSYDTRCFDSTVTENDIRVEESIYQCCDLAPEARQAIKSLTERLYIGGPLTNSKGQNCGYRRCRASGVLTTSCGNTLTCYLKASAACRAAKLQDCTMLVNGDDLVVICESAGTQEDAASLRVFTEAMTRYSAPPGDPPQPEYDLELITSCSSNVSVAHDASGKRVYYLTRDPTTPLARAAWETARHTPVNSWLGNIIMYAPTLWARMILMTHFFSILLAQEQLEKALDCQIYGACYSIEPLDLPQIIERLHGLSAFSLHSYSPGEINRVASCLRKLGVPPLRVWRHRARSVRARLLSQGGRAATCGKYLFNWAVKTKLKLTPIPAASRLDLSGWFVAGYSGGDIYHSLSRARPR
T2 sequence (P27958 2421-2990, stated change not applied): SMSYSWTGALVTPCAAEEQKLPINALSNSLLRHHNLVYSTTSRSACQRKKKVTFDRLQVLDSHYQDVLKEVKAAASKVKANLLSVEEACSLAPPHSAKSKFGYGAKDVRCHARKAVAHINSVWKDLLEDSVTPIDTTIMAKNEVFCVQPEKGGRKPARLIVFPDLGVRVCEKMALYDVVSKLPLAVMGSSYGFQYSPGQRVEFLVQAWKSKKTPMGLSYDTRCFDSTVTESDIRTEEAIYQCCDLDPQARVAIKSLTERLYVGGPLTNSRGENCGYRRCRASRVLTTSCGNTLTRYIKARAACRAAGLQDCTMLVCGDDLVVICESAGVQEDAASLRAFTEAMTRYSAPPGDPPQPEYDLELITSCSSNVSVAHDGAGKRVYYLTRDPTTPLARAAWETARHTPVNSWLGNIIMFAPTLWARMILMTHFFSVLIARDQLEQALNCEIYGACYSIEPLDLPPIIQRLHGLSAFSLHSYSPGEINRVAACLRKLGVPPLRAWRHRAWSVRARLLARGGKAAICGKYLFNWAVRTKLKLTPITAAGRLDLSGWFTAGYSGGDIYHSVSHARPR

SMILES	pIC50 [1]	pIC50 [2]	pEC50 [3]	pEC50 [4]
CC1(C)CC(=O)Oc2c1cc(N1CCC(=O)NC1=O)c1ccccc21 [Compound 4, 1-(4,4-dimethyl-2-oxo-3,4-dihydro-2H-benzo[h]chromen-6-yl)dihydropyrimidine-2,4(1H,3H)-dione]	6.00 to 7.00	< 6.00	–	–
CC(C)(C)c1cc(N2CCC(=O)NC2=O)cc2c(Nc3ccc(NS(C)(=O)=O)cc3)ncnc12 [Compound 6, N-(4-(8-tert-butyl-6-(2,4-dioxotetrahydropyrimidin-1(2H)-yl)quinazolin-4-ylamino)phenyl)methanesulfonamide]	7.00 to 8.00	7.00 to 8.00	6.00 to 7.00	6.00 to 7.00
CC(C)(C)c1cc(-n2ccc(=O)[nH]c2=O)cc2c(Nc3cc(CNS(C)(=O)=O)cs3)ncnc12 [Compound 7, N-((5-(8-tert-butyl-6-(2,4-dioxo-3,4-dihydropyrimidin-1(2H)-yl)quinazolin-4-ylamino)thiophen-3-yl)methyl)methanesulfonamide]	> 8.00	7.00 to 8.00	6.00 to 7.00	< 6.00
COc1c(C(C)(C)C)cc(-n2ccc(=O)[nH]c2=O)c2cccnc12 [Compound 1, 1-(7-tert-butyl-8-methoxyquinolin-5-yl)pyrimidine-2,4(1H,3H)-dione]	7.00 to 8.00	7.00 to 8.00	≥ 8.00	6.00 to 7.00
CC(C)(C)c1cc(-n2ccc(=O)[nH]c2=O)cc2c(Nc3ccc(NS(C)(=O)=O)cc3)ncnc12 [Compound 5, N-(4-(8-tert-butyl-6-(2,4-dioxo-3,4-dihydropyrimidin-1(2H)-yl)quinazolin-4-ylamino)phenyl)methanesulfonamide]	7.00 to 8.00	7.00 to 8.00	6.00 to 7.00	< 6.00
COc1c(C(C)(C)C)cc(-n2ccc(=O)[nH]c2=O)c2ccc(-c3ccc(NS(C)(=O)=O)cc3)nc12 [Compound 2, N-(4-(7-tert-butyl-5-(2,4-dioxo-3,4-dihydropyrimidin-1(2H)-yl)-8-methoxyquinolin-2-yl)phenyl)methanesulfonamide]	< 6.00	< 6.00	–	–
CC1(C)COc2c(-c3ccc4cc(NS(C)(=O)=O)ccc4c3)cc(-n3ccc(=O)[nH]c3=O)cc21 [Compound 3, N-(6-(5-(2,4-dioxo-3,4-dihydropyrimidin-1(2H)-yl)-3,3-dimethyl-2,3-dihydrobenzofuran-7-yl)naphthalen-2-yl)methanesulfonamide]	7.00 to 8.00	> 8.00	7.00 to 8.00	6.00 to 7.00
